Consider seven compounds from patent US8829015B2 (Novartis AG, priority 2005, dated 2014).

The structures appear in SMILES notation. Values joined by “and” are separate entries in the source; they are usually repeats but may differ in a detail not shown here. Identical values can stand only once. “Also recorded” adds a separate entry of the source. Counter-ions that a name gives are not always drawn.

A short description of data set [1]: Form conversion on exposure to solvent vapor, air, moisture or room conditions. The class given is physicochemical.
Data set [2] is described as follows: Stability studies on storage. In kind it is physicochemical. The following applies: for form after storage: 1 month at 80° C. and 75% relative humidity; for form transition after storage: storage at various relative humidities.
The nature of data set [3]: Intrinsic dissolution rate (rotating disk). In kind it is physicochemical. The procedure: Intrinsic Dissolution Rate (IDR): Dissolution rate measurements were performed at 37° C. using the rotating disk method (VanKell Instrument). A single rotation speed of 200 rpm was used. For IDR in 0.1N HCl, an 800 mL volume, and for IDR in water, a 200 mL volume were used. The solution was continuously pumped through a UV measuring cell and recycled to the dissolution vessel.
The measurements were carried out on a VanKel instrument using a Cary 100 photometer.

A short description of data set [4]: Equilibration of hydrochloride forms A, B and C with solvents, XRPD. In kind it is physicochemical. The text has this: Then the solutions were filtered and the solid part investigated by XRPD.
A short description of data set [5]: Solubility by gravimetric techniques at different temperatures, residue by XRPD.
[6] abbreviates: dissolution medium pH 2 (citrate buffer).
Where [7] appears, read: in the presence of methanol vapor.
The mark [8] stands for this setting: 0.0001N HCl, 25° C., after 24 hours.
Where [9] appears, read: 0.001N HCl, 25° C., after 24 hours.
Where [10] appears, read: 0.1N HCl, 50° C., after 24 hours.
Where [11] appears, read: Methanol/Water (99.5/0.5) v/v, 20° C., 1 hour.
Setting [12] is: Methanol/Water (99.5/0.5) v/v, 45° C., 24 hours.

Regarding `Cc1cn(-c2cc(NC(=O)c3ccc(C)c(Nc4nccc(-c5cccnc5)n4)c3)cc(C(F)(F)F)c2)cn1` [Form C′ of the hydrochloride salt], the form conversion entry in data set [1] (under room conditions) was “converts within a few minutes under room conditions to a mixture of forms B and C”.

`Cc1cn(-c2cc(NC(=O)c3ccc(C)c(Nc4nccc(-c5cccnc5)n4)c3)cc(C(F)(F)F)c2)cn1` [Form B′ of the hydrochloride salt]: the form conversion result in data set [1] (exposed to moisture) is “converts back to the monohydrate”; in data set [1] (under room conditions) it was “converts within a few minutes under room conditions to form B”.

For `Cc1cn(-c2cc(NC(=O)c3ccc(C)c(Nc4nccc(-c5cccnc5)n4)c3)cc(C(F)(F)F)c2)cn1` [Form SC of the hydrochloride salt], the form conversion entry in data set [1] (exposed to air) is recorded as “converts quickly to the monohydrate form C when exposed to air”.

Consider `Cc1cn(-c2cc(NC(=O)c3ccc(C)c(Nc4nccc(-c5cccnc5)n4)c3)cc(C(F)(F)F)c2)cn1` [Form A′ of the hydrochloride salt], for which the form conversion entry in data set [1] (under room conditions) is “converts within a few minutes under room conditions to form A”.

Take `Cc1cn(-c2cc(NC(=O)c3ccc(C)c(Nc4nccc(-c5cccnc5)n4)c3)cc(C(F)(F)F)c2)cn1` [Form SB of the hydrochloride salt]: the form conversion result in data set [1] (exposed to air) is reported as “converts quickly to the monohydrate form B when exposed to air”.

On to `Cc1cn(-c2cc(NC(=O)c3ccc(C)c(Nc4nccc(-c5cccnc5)n4)c3)cc(C(F)(F)F)c2)cn1` [Form C of the hydrochloride salt], for which, in data set [2], the form after storage result was “showed a mixture with form A”. Moreover, the “form transition after storage” value in data set [2] is recorded as “No form transitions were observed”. Also, the “Intrinsic Dissolution Rate value” in data set [3] (dissolution medium HCl 0.0001 N) is 0.0004 mg/min/cm^2; in data set [3] (dissolution medium HCl 0.001 N), 0.0057 mg/min/cm^2; in data set [3] (dissolution medium HCl 0.01 N), 0.0247 mg/min/cm^2; in data set [3] (dissolution medium HCl 0.1 N) it was 0.2323 mg/min/cm^2 and 0.3213 mg/min/cm^2; in data set [3] (dissolution medium Water) it was 0.000 mg/min/cm^2; in data set [3] (setting [6]), 0.0099 mg/min/cm^2. Also, the form conversion result in data set [1] (setting [7]) is given as “converts to form B”. Besides, the “form transition on equilibration” value was “transitioned to a mixture of all three forms” in data set [4] (ethanol/water (99:1), 50° C., 1 day); “transitioned to form B” in data set [4] (methanol, 50° C., 1 day); “transitioned to form B” in data set [4] (methanol, one day, 25° C.); “to a mixture of forms B and C” in data set [4] (tetrahydrofuran, 50° C., 1 day); “transitioned to form A” in data set [4] (water, 50° C., 1 day); “transitioned to form A” in data set [4] (water, one day, 25° C.). Further, the Solubility in data set [5] (setting [8]) is recorded as 1.67 mg/mL; in data set [5] (setting [9]), 1.29 mg/mL; in data set [5] (0.001N HCl, 50° C., after 24 hours), 6.72 mg/mL; in data set [5] (0.01N HCl, 25° C., after 24 hours), 1.37 mg/mL; in data set [5] (0.01N HCl, 50° C., after 24 hours), 1.69 mg/mL; in data set [5] (0.1N HCl, 25° C., after 24 hours) it was 2.35 mg/mL. The Solubility in data set [5] (setting [10]) was 8.30 mg/mL; in data set [5] (Methanol, 25° C., after 24 hours), 18.20 mg/mL; in data set [5] (Methanol, 50° C., after 24 hours) it was 55.26 mg/mL; in data set [5] (Methanol/Water (95/5) v/v, 20° C., 10 minutes), 18.88 mg/mL; in data set [5] (Methanol/Water (95/5) v/v, 20° C., 1 hour), 13.03 mg/mL; in data set [5] (Methanol/Water (95/5) v/v, 20° C., 24 hours), 11.76 mg/mL. Further, the Solubility turned out to be 37.68 mg/mL in data set [5] (Methanol/Water (95/5) v/v, 45° C., 10 minutes); 31.15 mg/mL in data set [5] (Methanol/Water (95/5) v/v, 45° C., 1 hour); 32.26 mg/mL in data set [5] (Methanol/Water (95/5) v/v, 45° C., 24 hours); 9.73 mg/mL in data set [5] (Methanol/Water (95/5) v/v, −10° C., 10 minutes); 7.74 mg/mL in data set [5] (Methanol/Water (95/5) v/v, −10° C., 1 hour); 11.00 mg/mL in data set [5] (Methanol/Water (95/5) v/v, −10° C., 24 hours). Also, the Solubility in data set [5] (Methanol/Water (99.5/0.5) v/v, 20° C., 10 minutes) is 24.34 mg/mL; in data set [5] (setting [11]), 17.70 mg/mL; in data set [5] (Methanol/Water (99.5/0.5) v/v, 20° C., 24 hours) it was 12.09 mg/mL; in data set [5] (Methanol/Water (99.5/0.5) v/v, 45° C., 10 minutes) it was 39.86 mg/mL; in data set [5] (Methanol/Water (99.5/0.5) v/v, 45° C., 1 hour), 46.15 mg/mL; in data set [5] (setting [12]), 45.59 mg/mL. Besides, the Solubility in data set [5] (Methanol/Water (99.5/0.5) v/v, −10° C., 10 minutes) is 11.91 mg/mL; in data set [5] (Methanol/Water (99.5/0.5) v/v, −10° C., 1 hour), 7.99 mg/mL; in data set [5] (Methanol/Water (99.5/0.5) v/v, −10° C., 24 hours), 6.12 mg/mL; in data set [5] (Water, 25° C., after 24 hours), 1.47 mg/mL; in data set [5] (Water, 50° C., after 24 hours) it was 1.31 mg/mL. The “XRPD (form of the solid)” value was “C + A” in data set [5] (setting [8]); “C + A” in data set [5] (setting [9]); “A+” in data set [5] (setting [10]); “C + B” in data set [5] (setting [11]); “C + B” in data set [5] (setting [12]); “C + A” in data set [5] (Water, 25° C., after 24 hours).

As for `Cc1cn(-c2cc(NC(=O)c3ccc(C)c(Nc4nccc(-c5cccnc5)n4)c3)cc(C(F)(F)F)c2)cn1` [Amorphous form of the hydrochloride salt], the form after storage entry in data set [2] is reported as “showed a mixture with form A”. Also, in data set [2], the “form transition after storage” value is recorded as “spontaneously crystallizes to form A; also recorded: spontaneously converts to the form A hydrochloride salt”. In addition, the “Intrinsic Dissolution Rate value” was determined as 0.2508 mg/min/cm^2 in data set [3] (dissolution medium HCl 0.1 N) and 0.0250 mg/min/cm^2 in data set [3] (setting [6]). Moreover, in data set [1] (setting [7]), the form conversion result is “converts to form B”.
